What was measured:
[1] = Crystallization of individual oxyanion (5 mM) with BIG chloride, ICP-MS of filtrate; conditions: for selenate removal efficiency: 5 mM selenate alone; for sulfate removal efficiency: 5 mM sulfate alone
Method: (§1) In a typical experiment, BIG chloride was added to wastewater containing sulfate, selenate, and/or selenite anions, and immediately upon addition, a white precipitate formed. The resulting suspensions were mixed for 24 h using a rotator set at 60 rpm inside an incubator set to 25 C. The samples were then removed and centrifuged for 10 min at 3000 rpm to separate the aqueous and solid phases. In the field, the suspended solids were filtered through a filter press. A 1 mL aliquot was then removed from each sample and passed through a 0.02 μm syringe filter to ensure any suspended solid was removed from the filtrate prior to diluting the samples in 2% HNO3 for ICP-MS analysis. To recover the BIG ligand, 2.1 equiv. of NaOH (or adjusted to a pH of 11) was added to a suspension of the BIG-oxyanion salts in a 15 mL polypropylene centrifuge tube. The suspension was mixed for 24 h at 60 rpm. The suspended BIG neutral solid was filtered from the supernatant solutions containing the oxyanions dissolved as soluble sodium salts. The BIG chloride salts were then regenerated by the addition of 0.1 M HCl to the neutral ligands. This process is depicted schematically in FIG. 5.
Crystallization studies with BBIG and individual sulfate, selenate, or selenite anions (5 mM) were performed, while the concentration of BIGs was increased from one to ten molar equivalents. […] On the other hand, only approximately half (53.0%, FIG. 2a) of the selenite was removed from the solution with 1 equivalent of BBIG, which can be attributed to its propensity to form HScO3^−, by deprotonating BBIG in the process. […] Once again, selenite was removed to a lesser extent (70.7%) with 1 equivalent of PyBIG (FIG. 2b).

[2] = Cocrystallization from equimolar sulfate/selenate mixture (2.5 mM each); conditions: for selenate removal / sulfate removal: 2.5 mM sulfate + 2.5 mM selenate; for ratio of sulfate to selenate % removal: equimolar mixture
Method: as §1
Concomitant crystallization of sulfate and selenate with either BBIG or PyBIG led to near quantitative removal of both oxyanions from equimolar aqueous mixtures. Cocrystallization experiments were carried out keeping the concentration of sulfate and selenate at near equimolar concentrations of 2.5 mM, while the BIG concentrations were increased gradually from 5 to 50 mM. […] At higher BBIG concentrations, the oxyanion removal remained near quantitative. Referring to the ratio of sulfate to selenate % removal, a ratio of 1.0 indicates there is no preference for sulfate over selenate. […] At relative ligand concentrations higher than 1 equivalent of BBIG, the ratio of removal efficiencies approaches 1, indicating no preference between the two oxyanions by crystallization under these conditions.
PyDIG also quantitatively removed sulfate and selenate at higher BIG concentrations. […] Increasing the PyBIG concentration achieved a ratio of approximately 1, indicating no discrimination between sulfate and selenate with excess PyBIG. With both BBIG and PyBIG, it appears the 2:1 BIG:oxyanions ratio is ideal for effectively removing SO4^2− and SeO4^2− anions from solution with minimal excess of the BIG ligands.

[3] = Crystallization at constant 2.5 mM sulfate and decreasing selenate (2.5 mM to 2.5 μM); conditions: 2.5 mM sulfate
Method: as §1
Crystallization experiments were carried out keeping sulfate at a constant concentration and decreasing the selenate concentration while maintaining constant ionic strength to mimic wastewater conditions. These experiments were carried out at 1 and 2 molar equivalents of BBIG or PyBIG. […] At lower selenate concentrations of 250, 25, and 2.5 μM, there is no discernible preference between the oxyanions. […] At the lowest concentration of selenate, the amount remaining in solution after crystallization is below the limit of detection of 0.02 ppb Se. The same trend is observed for PyBIG, with near quantitative removal of both sulfate and selenate.

[4] = Cocrystallization from simulated Bull Run groundwater
Method: as §1
The efficacies of sulfate and selenate removal with BBIG and PyBIG ligands were next tested with simulated wastewater to determine if the EPA's 5 ppb discharge limit was achievable. The initial concentrations of sulfate and selenate in the simulated wastewater were based on typical values found in groundwaters monitored at the Bull Run steam plant of Tennessee Valley Authority (TVA). The simulated Bull Run groundwater contained an 8985-fold excess concentration of sulfate relative to selenate, with sulfate and selenate concentrations of 5.84±0.11 mM and 0.65±0.07 μM, respectively. Cocrystallization studies were performed with 1 and 2 mol equiv of BBIG or PyBIG. […] On the other hand, selenate removal was near quantitative with 2 equiv of BBIG (FIG. 4a).

[5] = Cocrystallization from simulated Bull Run leachate
Method: as §1
A more concentrated simulated wastewater solution based on Bull Run's leachate water that has leached from fly ash beds was also tested with BBIG and PyBIG. The concentrations of sulfate and selenate in the simulated leachate were 48.49±0.7 mM and 2.37±0.16 μM, respectively, with sulfate concentration being 20,460 times higher than that of selenate. In the case of BBIG, 1 equiv removed 96.3% and 95.4% sulfate and selenate, respectively, while 2 equiv removed sulfate and selenate near quantitatively at 99.90% and 99.94%, respectively, with a final Se concentration of 8.59±0.62 ppb (1 equiv) and 0.20±0.01 ppb (2 equiv). In the case of PyBIG, 89.2% and 85.5% sulfate and selenate, respectively, were removed with 1 equiv, and 99.98% and 99.99%, respectively with 2 equiv. The final Se concentrations after cocrystallization with PyBIG were 27.23±0.92 ppb (1 equiv) and 0.02±0.01 ppb (2 equiv), reaching the limit of detection. […] In fact, the large excess of sulfate present in the wastewaters appears to help remove trace amounts of selenate by cocrystallization with BBIG or PyBIG, down to sub-ppb levels of Se.

[6] = BIG at twice the oxyanion concentration (10 mM)
[7] = 1 molar equivalent BIG relative to total oxyanion
[8] = BIG increased to 2 equivalents (PyBIG: increased concentration, plateau after 2 equivalents)
[9] = simulated groundwater (5.84 mM sulfate, 0.65 μM selenate), 1 equiv BIG
[10] = simulated groundwater, 2 equiv BIG
[11] = simulated leachate (48.49 mM sulfate, 2.37 μM selenate), 1 equiv BIG
[12] = simulated leachate, 2 equiv BIG

N=C(N)N/N=C/c1cccc(/C=N/NC(=N)N)n1 [PyBIG, pyridinedialdehydebis(iminoguanidinium)]
selenate removal efficiency ([1]; 5 mM (1 equiv) BIG): 93.9% | selenate removal efficiency [1, 6]: 99.8% | selenite removal efficiency ([1]; 5 mM selenite alone, 1 equivalent BIG): 70.7% | sulfate removal efficiency ([1]; 5 mM (1 equiv) BIG, 24 h, 25 C): 95.0% | sulfate removal efficiency [1, 6]: 99.9% | selenate removal [2, 7]: 75.6% | sulfate removal [2, 7]: 82.3% | selenate removal [2, 8]: 99.7% | sulfate removal [2, 8]: 97.8% | ratio of sulfate to selenate % removal ([2]; 1 equivalent BIG, 1.0 = no preference): 0.84 | ratio of sulfate to selenate % removal ([2]; more than 1 equivalent (excess) BIG): approximately 1 | selenate removal ([3]; 1 equiv BIG): 75.6% | sulfate removal ([3]; 1 equiv BIG): 82.3% | selenate removal ([3]; 2 equiv BIG): > 99.7% | sulfate removal ([3]; 2 equiv BIG): > 99.7% | selenate removal [4, 9]: 81.6% | sulfate removal [4, 9]: 88.5% | final Se concentration ([4]; simulated groundwater, 1 equiv BIG): 9.39±0.34 ppb | final Se concentration [4, 10]: 0.02±0.01 ppb | selenate removal [4, 10]: 99.96% | sulfate removal [4, 10]: 99.94% | sulfate-to-selenate removal ratio ([5]; simulated groundwater and leachate): approximately one | selenate removal [5, 11]: 85.5% | sulfate removal [5, 11]: 89.2% | final Se concentration ([5]; simulated leachate, 1 equiv BIG): 27.23±0.92 ppb | final Se concentration [5, 12]: 0.02±0.01 ppb | selenate removal [5, 12]: 99.99% | sulfate removal [5, 12]: 99.98%
